Entries after “also recorded” stand apart in the source; their conditions may differ.

Data set [1] has as its system HHDII/DR1 mice. Kind of data set: In vivo toxicity in HHDII/DR1 mice. Further details: species or system HHDII/DR1 (HLA‐A2 transgenic) mice. Particulars: 10 nmol in 50 μL s.c., days 1, 8 and 15, n = 3. As for the experimental part:
(§1) Animal experiments were carried out with ethical approval from University of Nottingham ethical review board and under a Home Office approved project license (PP2706800). Mice were dosed with 10 nmol of material in 50 μL at Days 1, 8 and 15 (n = 3). IFNϒ ELISpot assays on splenocytes were conducted on termination at Day 21. General methods for the ELISpot can be found in the Supporting Information. Preparation of media and buffers and steps performed on Days 1 and 2 post‐termination; the ELISpot assays were performed using a laminar flow cabinet and aseptic techniques to ensure the sterility of media, reagents and plates at stages before development of the ELISpot. Development of the ELISpot on Day 4 posttermination was performed on the laboratory bench.
(§2) In Vivo Evaluation (ELISpot Assay)
(§3) Animal experiments were carried out with ethical approval from University of Nottingham ethical review boards and under a Home Office approved project license (PP2706800). HLA-HHDII/DR1 (HLA-A2.1+/+ HLADR1+/+, Pasteur Institute) transgenic mice knocked out for murine MHC-I and II and expressing chimeric HLA-A2 (HHDII) and human HLA-DR1 or Balb/c mice (Charles River) aged 6-12 weeks were used. Mice were vaccinated with 10 ηmol of each immunogen at each timepoint. Doses were delivered subcutaneously (s.c.) in 50 µl volume on days 1, 8 and 15. No anaesthesia was used for injections. […]

In data set [2] the test system is IFNγ‐secreting T‐cells. Kind of data set: In vivo immunisation, IFNγ ELISpot on splenocytes, HHDII/DR1 mice. Further details: species or system HHDII/DR1 (HLA‐A2 transgenic) mice. On the procedure:
as §1, §2
as §3, with “injections. Responses were screened on day 21 after euthanasia by cervical dislocation. Preparation of media and buffers and steps performed on days 1 and 2 of the ELISpot assay were performed using a laminar flow cabinet and aseptic techniques to ensure the sterility of media, reagents and plates at stages before development of the ELISpot. Development of the ELISpot on day 4 can be performed on the” for “injections.”
The following tables summarise the details of the vaccine candidates and vaccination procedure including (dose time points):
Table S5. Summary of the injection schedule (including dose concentration and number) for Pam2Cys-SK4-NY-ESO-1157-165 (2) candidate using HHDII/DR1 Tg mice. […]

Consider “3: vaccine‐adjuvant construct Pam2Cys‐SK4‐NY‐ESO‐1_157‐165 [compound 3]”, for which, in data set [1], the “In vivo toxicity outcome” value is on record as “non‐toxic”. Besides, in data set [2] (healthy HLA‐A2 transgenic (HHDII/DR1) mice, 10 nmol in 50 μL s.c., days 1, 8, 15, n = 3, day 21, versus media‐only negative control), the “Immune response (in words)” value is reported as “specific but weak responses; also recorded: weakly immunogenic; also recorded: shows activity as a self‐adjuvanting vaccine candidate”. The “ANOVA significance (in words)” value in data set [2] (restimulated with NY‐ESO‐1_87‐111 and NY‐ESO‐1_119‐143) is listed as “not significant”; in data set [2] (restimulated with NY‐ESO‐1_157‐165) it was “significant effect”.

Source of the values: article PMC12053792 (Journal of Peptide Science, 2025).
